# Article PMC4912613, “A broad analysis of resistance development in the malaria parasite” (Nature Communications, 2016)
# pEC50: −log10 of the molar value.
# How the values were obtained:
# [1] = tested on: DHODH (E182D, parent 3D7); assay: Cross-resistance EC50 assay, DHODH; format: cell-based; conditions: Plasmodium falciparum, SYBR green 72 hour assay, synchronized parasites, 384-well format
# From the text: (§1) To evaluate potential overlapping activity against known antimalarial drug targets, we performed dose-response studies with each compound against our assembled set of drug-resistant lines and their corresponding parents, in an asexual blood stage proliferation assay (Table 1). Comparisons were made to the drug-sensitive strain 3D7 when a parent was unavailable (TM90C2A, W2 and Dd2). As laboratories conducted EC50 assays with different strains and protocols, all comparisons were made between assays from the same laboratory and under the same assay conditions. Compounds displaying >5-fold EC50 shifts relative to the parent or sensitive strain were flagged as having potentially non-novel targets. Average fold shifts per strain ranged from 0.82 to 2.34, with a median of 1.23 indicating there was not common resistance to any one resistant clone. No resistance patterns were observed when classifying the compounds based on chemical structure, but this was not surprising given the diversity of compounds chosen. On the other hand, given that these confirmed compounds were derived from larger unconfirmed hit lists to which some filtration criteria may have been applied (for example, elimination of obvious dihydrofolate reductase inhibitors[32]), some[10][11][12][13] pre-existing bias may exist in the set. […]
# (§2) Alternatively, a SYBR Green-based proliferation approach was used for the 72-h assay, as previously described. Briefly, a culture of either synchronized or asynchronous parasitized RBCs (0.3% parasitemia and 4% haematocrit) in screening medium (identical to supplemented medium above except no serum was added) was exposed to serial drug dilutions. Plates were incubated at 37 °C and gassed with 93% N2, 4% CO2 and 3% O2 for 72 h. Following incubation, 10 × SYBR Green I (Invitrogen; supplied in 10,000 × concentration) in lysis buffer ([…], 5 mM EDTA, 0.16% Saponin wt per vol and 1.6% Triton X vol per vol) was added to the wells and the plates were incubated overnight at room temperature before plate reading. EC50 assays were repeated three times, taking the average EC50 value from each assay set, and removing any outliers using a single iteration of Grubbs' test, eliminating values with z-scores above the critical z-value (α=0.05). The raw EC50 values for synchronized parasites assayed in a 384-well format are listed in Supplementary Data 4. The raw EC50 values for asynchronous parasites assayed in a 96 or 1536-well format are listed in Supplementary Data 5.
# (§3) EC50 values for each strain were compared with those of the corresponding parent strain to determine fold-shift changes and identify resistance. To minimize the cause variance between assays, all comparisons were conducted between strains assayed under identical conditions. A one-way ANOVA followed by a Dunnet's post-test was conducted in GraphPad Prism to identify significant changes between the parent and resistant strain.
# [2] = tested on: P. falciparum; assay: Rate of killing (parasite viability) assay; format: cell-based, Plasmodium falciparum; conditions: profile compared with chloroquine, pyrimethamine, atovaquone; 48 h treatment
# Description: To identify whether selection success could be predicted by compound speed of action, and to gain a greater insight into the potential mechanisms of action, assays were performed to test the killing rate (Supplementary Data 1)[33]. To quantify the killing rate, viability time-course profiles for each compound were compared with antimalarials known to have fast (chloroquine), moderate (pyrimethamine) or slow (atovaquone) rate of action. These rates were then compared with other compound characteristics, including cross-resistance profile, selection success, potency and structural characteristics to identify any possible trends. […] One compound's rate of killing, MMV666080, was unidentifiable due to compound availability. No correlation was seen between compound structure and speed of action. Additionally, there was no correlation found between killing rate and compound potency against 3D7, nor between potency and selection success (Supplementary Fig. 2).
# Rate of killing was determined for each compound following a previously described methodology, which uses the invasion of fresh erythrocytes as surrogate of parasite viability. Briefly, parasites were treated with compounds for 48 h. Compound was washed out and fresh-labelled erythrocytes added to the treated parasites. Double stained erythrocytes (RBC label plus parasite DNA label) were quantified and per cent of survival determined.
# [3] = tested on: NITD609-R2 (PfATP4 T418N and P990R, parent Dd2); assay: Cross-resistance EC50 assay, NITD609-R2; format: cell-based; conditions: Plasmodium falciparum, SYBR green 72 hour assay, asynchronized parasites, 96-well or 1536-well format
# From the text: as §1, §2, §3
# [4] = tested on: ProRS (prolyl t-RNA synthetase L482H, parent Dd2); assay: Cross-resistance EC50 assay, ProRS; format: cell-based; conditions: Plasmodium falciparum, SYBR green 72 hour assay, synchronized parasites, 384-well format
# From the text: as §1, §2, §3
structure (smiles),measurement,setting,value
COc1ccc(NC(=O)N2CCCCN3[C@H](CN)[C@H](c4ccc(C#Cc5ccccc5)cc4)[C@@H]3C2)cc1 [BRD1095],pEC50,"[1]; 3D7, DHODH strain",7.64
same,Killing Rate,[2],PYR/CQ (moderate)
same,EC50,[3],0.001 µM
same,pEC50,"[4]; DD2, ProRS strain",7.77
CCN(CC)CCn1c(=N)n(CC(O)c2ccc(Cl)c(Cl)c2)c2ccccc21.Cl (stereo not shown) [MMV000248],pEC50,[1]; strain DHODH (3D7 parent),6.50
same,Killing Rate,[2],CQ (fast)
same,EC50,[3],0.252 µM
same,pEC50,[4]; strain ProRS (Dd2 parent),6.44
CCOc1cc2c(cc1OCC)C(c1cc(Cl)ccc1O)NCC2 (stereo not shown) [MMV000478],pEC50,[1]; strain DHODH (3D7 parent),5.84
same,Killing Rate,[2],CQ (fast)
same,EC50,[3],0.661 µM
same,pEC50,[4]; strain ProRS (Dd2 parent),6.21
CCCOCc1cc(CN2CCN(c3cccc(Cl)c3)CC2)c(O)c2ncccc12 [MMV000787],pEC50,[1]; strain DHODH (3D7 parent),6.33
same,Killing Rate,[2],CQ (fast)
same,EC50,[3],1.25 µM
same,pEC50,[4]; strain ProRS (Dd2 parent),6.32
CN1CCN(c2ccc(Nc3c4ccccc4nc4ccccc34)cc2)CC1 [MMV006172],pEC50,[1]; strain DHODH (3D7 parent),7.30
same,Killing Rate,[2],CQ (fast)
same,EC50,[3],0.242 µM
same,pEC50,[4]; strain ProRS (Dd2 parent),6.90
CCCN(CCC)CC(O)COc1ccccc1C(=O)Nc1ccccc1 (stereo not shown) [MMV006455],pEC50,[1]; strain DHODH (3D7 parent),5.55
same,Killing Rate,[2],CQ (fast)
same,EC50,[3],0.258 µM
same,pEC50,[4]; strain ProRS (Dd2 parent),6.05
COc1cc2cc(C(=O)Nc3ccccc3)c(N)nc2cc1OC [MMV006767],pEC50,[1]; strain DHODH (3D7 parent),6.28
same,Killing Rate,[2],PYR (moderate)
same,EC50,[3],0.106 µM
same,pEC50,[4]; strain ProRS (Dd2 parent),5.76
Cc1cc(Nc2ccc(OCc3ccccc3)cc2)nc2cc(O)ccc12 [MMV007181],pEC50,[1]; strain DHODH (3D7 parent),6.69
same,Killing Rate,[2],PYR/CQ (moderate)
same,EC50,[3],0.128 µM
same,pEC50,[4]; strain ProRS (Dd2 parent),6.98
Brc1ccc(Nc2nc3ccccc3nc2Nc2ccc(Br)cc2)cc1 [MMV007224],pEC50,[1]; strain DHODH (3D7 parent),6.22
same,Killing Rate,[2],ATQ (slow)
same,EC50,[3],0.754 µM
same,pEC50,[4]; strain ProRS (Dd2 parent),6.53
Cc1ccc(Cn2c(N3CCC(C(=O)NCc4cccs4)CC3)nc3ccccc32)cc1 [MMV007564],pEC50,[1]; strain DHODH (3D7 parent),6.20
same,Killing Rate,[2],PYR/CQ (moderate)
same,EC50,[3],0.705 µM
same,pEC50,[4]; strain ProRS (Dd2 parent),6.38
Cc1c(C)n(Cc2ccc(F)cc2)c2ccc(C(=O)NCc3ccco3)cc12 [MMV008149],pEC50,[1]; strain DHODH (3D7 parent),6.40
same,Killing Rate,[2],ATQ (slow)
same,EC50,[3],0.934 µM
same,pEC50,[4]; strain ProRS (Dd2 parent),7.17
OC(CNC1CCCCC1)Cn1c2ccccc2c2ccccc21 (stereo not shown) [MMV009063],pEC50,[1]; strain DHODH (3D7 parent),6.15
same,Killing Rate,[2],CQ (fast)
same,EC50,[3],0.411 µM
same,pEC50,[4]; strain ProRS (Dd2 parent),6.84
CCN(CC)S(=O)(=O)c1ccc(-c2csc(Nc3ccc(C)c(C)c3)n2)cc1 [MMV009108],pEC50,[1]; strain DHODH (3D7 parent),6.01
same,Killing Rate,[2],ATQ (slow)
same,EC50,[3],0.574 µM
same,pEC50,[4]; strain ProRS (Dd2 parent),6.43
COC(=O)c1ccc(C2C3=C(O)CC(c4ccc(F)cc4)CC3=Nc3ccccc3N2C(=O)c2ccccc2)cc1 (stereo not shown) [MMV011438],pEC50,[1]; strain DHODH (3D7 parent),6.25
same,Killing Rate,[2],ATQ (slow)
same,EC50,[3],0.306 µM
same,pEC50,[4]; strain ProRS (Dd2 parent),6.66
Nc1ccc(-c2nc3cc(Oc4ccc(Oc5ccc6[nH]c(-c7ccc(N)cc7)nc6c5)cc4)ccc3[nH]2)cc1 [MMV011895],pEC50,[1]; strain DHODH (3D7 parent),6.77
same,Killing Rate,[2],CQ (fast)
same,EC50,[3],0.56 µM
same,pEC50,[4]; strain ProRS (Dd2 parent),6.63
COCCNCC(O)Cn1c2ccc(Cl)cc2c2cc(Cl)ccc21 (stereo not shown) [MMV019017],pEC50,[1]; strain DHODH (3D7 parent),5.98
same,Killing Rate,[2],CQ (fast)
same,EC50,[3],0.456 µM
same,pEC50,[4]; strain ProRS (Dd2 parent),6.47
COc1ccccc1CNC(=O)CCn1c(=O)[nH]c2ccsc2c1=O [MMV019066],pEC50,[1]; strain DHODH (3D7 parent),7.28
same,Killing Rate,[2],ATQ (slow)
same,EC50,[3],0.014 µM
same,pEC50,[4]; strain ProRS (Dd2 parent),7.38
Cl.c1ccc2c(NCCCCCCNc3c4c(nc5ccccc35)CCCC4)c3c(nc2c1)CCCC3 [MMV019555],pEC50,[1]; strain DHODH (3D7 parent),7.25
same,Killing Rate,[2],CQ (fast)
same,EC50,[3],0.188 µM
same,pEC50,[4]; strain ProRS (Dd2 parent),6.64
COc1ccc(N2CCN(C(CNC(=O)C3CCCCC3)c3ccc4c(c3)OCO4)CC2)cc1 (stereo not shown) [MMV019662],pEC50,[1]; strain DHODH (3D7 parent),6.07
same,Killing Rate,[2],ATQ (slow)
same,EC50,[3],0.512 µM
same,pEC50,[4]; strain ProRS (Dd2 parent),6.32
COc1ccc(-c2nc(NC(=O)Cc3ccc4c(c3)OCCO4)sc2C)cc1 [MMV019719],pEC50,[1]; strain DHODH (3D7 parent),6.74
same,Killing Rate,[2],CQ (fast)
same,EC50,[3],0.328 µM
same,pEC50,[4]; strain ProRS (Dd2 parent),6.61
Cc1ccc(Oc2ncccc2C(=O)Cc2cccc3cccnc23)c(C)c1 [MMV020746],pEC50,[1]; strain DHODH (3D7 parent),6.91
same,Killing Rate,[2],ATQ (slow)
same,EC50,[3],2.14 µM
same,pEC50,[4]; strain ProRS (Dd2 parent),6.56
COc1cc(-c2nc(-c3ccccc3)c(-c3ccccc3)[nH]2)cc(OC)c1O [MMV020750],pEC50,[1]; strain DHODH (3D7 parent),6.29
same,Killing Rate,[2],PYR (moderate)
same,EC50,[3],1.22 µM
same,pEC50,[4]; strain ProRS (Dd2 parent),6.04
CCCCCCCN(Cc1ccc(OC(C)(C)C(=O)OCC)cc1)C(=O)Nc1ccc(Cl)cc1OCC [MMV021735],pEC50,[1]; strain DHODH (3D7 parent),6.34
same,Killing Rate,[2],ATQ (slow)
same,EC50,[3],0.773 µM
same,pEC50,[4]; strain ProRS (Dd2 parent),6.57
CN(C)Cc1ccc(-c2cc3c(-c4ccc(CN(C)C)cc4)ccnc3[nH]2)cc1.O=C(O)C(F)(F)F [MMV022224],pEC50,[1]; strain DHODH (3D7 parent),6.49
same,Killing Rate,[2],CQ (fast)
same,EC50,[3],0.406 µM
same,pEC50,[4]; strain ProRS (Dd2 parent),6.53
Nc1ncc(-c2cn[nH]c2)cc1-c1nc2ccc(F)cc2[nH]1 [MMV023367],pEC50,[1]; strain DHODH (3D7 parent),6.38
same,Killing Rate,[2],CQ (fast)
same,EC50,[3],1.6 µM
same,pEC50,[4]; strain ProRS (Dd2 parent),6.29
Cc1nc2ccc3ccc(CNc4ccc(C(=O)CC(CCC(=O)O)C(=O)O)cc4)cc3c2c(=O)[nH]1.Cl (stereo not shown) [MMV027634],pEC50,[1]; strain DHODH (3D7 parent),7.48
same,Killing Rate,[2],ATQ (slow)
same,EC50,[3],0.14 µM
O=C(NC(c1ccccc1)c1ccc2cccnc2c1O)c1ccccc1 (stereo not shown) [MMV666080],pEC50,[1]; strain DHODH (3D7 parent),6.11
same,EC50,[3],1.19 µM
same,pEC50,[4]; strain ProRS (Dd2 parent),6.24
c1cncc(-c2cc(N3CCC(CN4CCOCC4)CC3)nc(-c3ccncc3)n2)c1 [MMV668399],pEC50,[1]; strain DHODH (3D7 parent),7.10
same,Killing Rate,[2],PYR (moderate)
same,EC50,[3],0.652 µM
